From US5919668A, “Non-reducing saccharide and its production and use” (Kabushiki Kaisha Hayashibara Seibutsu Kagaku Kenkyujo, priority 1994, dated 1999)
“Also recorded” adds a separate entry of the source.

Columns and labels:
[1] = test system: pig pancreas alpha-amylase; test: Degradation by pig pancreas alpha-amylase; assay type: biochemical; settings: for G1 (glucose) in degradation product by alpha-amylase / G2 (maltose) in degradation product by alpha-amylase / G3 (maltotriose) in degradation product by alpha-amylase / PI in degradation product by alpha-amylase / PII in degradation product by alpha-amylase: pH6.9, 37° C., 18 hours
Method: (§1) The non-reducing saccharide preparations PI, PII, PIII, PIV and PV as substrates prepared in Experiment 4 were subjected to pig pancreas alpha-amylase, rice alpha-glucosidase and acetone-pulverized rat small intestine enzyme, all of which were products of Sigma Chemical Co., St Louis, Mo., USA, and the degradation products were analyzed on high-performance liquid chromatography for saccharide composition. The reaction by alpha-amylase was carried out by dissolving 10 mg of either substrate in 1 ml of 50 mM phosphate buffer (pH6.9), adding thereto one unit of alpha-amylase and incubating at 37° C. for 18 hours. The reaction by alpha-glucosidase was conducted similarly as in the case of alpha-amylase except that 50 mM acetate buffer (pH4.0) was used. In the case of acetone-pulverized rat small intestine enzyme, the reaction was conducted similarly as in the case of alpha-amylase except that 50 mM maleic acid buffer (pH6.0) was used.

pig kidney trehalase = test: Degradation by pig kidney trehalase; assay type: biochemical; settings: trehalose, or trehalose formed from PI-PV; pH5.7, 37° C., 18 hours for the latter
Method: In order to purify trehalose from respective reaction products, they were decolored, deionized, concentrated and subjected to column fractionation on a strongly-acidic cation exchange of sodium form "XT-1016", followed by recovering high-purity fractions with trehalose contents of 97% or higher. The fractions were then concentrated to about 65% and allowed to standing at 25° C. for 2 days to crystallize out crystalline trehalose hydrate which was then separated and dried in vacuo to obtain a high-purity preparation with a trehalose content of 99% or higher. The yields against respective starting substrates on dry solid basis were as follows: from glycosyl trehalose, 9.5%; from maltosyl trehalose, 14.9%; from maltotriosyl trehalose, 16.0%; from maltotetraosyl trehalose, 18.5%; and from maltopentaosyl trehalose, 17.7%. […] As evident from the above results, the saccharides formed by subjecting alpha-glycosyl trehaloses to the trehalose-releasing enzyme were identified to be trehalose.

[2] = Maillard reaction (coloration with glycine, absorbance at 480 nm); assay type: physicochemical; settings: for Coloration degree at 480 nm: 10% saccharide, 1% glycine, 50 mM phosphate buffer pH7.0, 100° C., 90 minutes, 1 cm cuvette; for Coloration degree relative to maltooligosaccharides as material: 480 nm, with glycine
Method: Solutions of 10% saccharide preparation PI, PII, PIII, PIV or PV prepared in Experiment 4 and 1% glycine in 50 mM phosphate buffer (pH7.0) were incubated at 100° C. for 90 minuets, cooled and determined in 1 cm cuvette for absorbance at 480 nm. As control, maltotriose, maltotetraose, maltopentaose, maltohexaose and maltoheptaose which were used as the starting materials were treated similarly as above and determined for absorbance at 480 nm.
10% High-purity trehalose preparation, purity of 99.5%, obtained by the method in Experiment 17 and 1% glycine in 50 mM phosphate buffer (pH7.0) was incubated at 100° C. for 90 minutes, cooled and measured in lcm cuvette for absorbance at 480 nm. As control, glucose and maltose were treated similarly as above and then measured for absorbance at 480 nm.

[3] = Reducing power by the Somogyi-Nelson method, represented in terms of DE; assay type: physicochemical; settings: high-purity preparations, Somogyi-Nelson method
Method: The high-purity preparations of the newly formed saccharides were determined for reducing power by the Somogyi-Nelson method and represented in terms of DE.

mice = test: Acute toxicity test, oral administration in mice; assay type: in vivo; settings: for Animal death at the possible highest dose: oral, mice
Method: Acute toxicity tests were conducted on the non-reducing saccharide preparations PI, PII, PIII, PIV and PV prepared in Experiment 4, where they were orally administered to 7 week-old dd mice. […] Thus the LD50 of these saccharides was at least 50 g/kg or higher.
An acute toxicity test was conducted on a high-purity trehalose preparation obtained by the method in Experiment 17, purity of 99.5%, where it was orally administered in mice. […] Thus its LD50 would be briefly 50 g/kg or higher.

glucoamylase = test: Enzymatic hydrolysis by glucoamylase; assay type: biochemical; settings: for Molar ratio (glucose/trehalose): degradation product by glucoamylase; for Glucose in degradation product by glucoamylase / Trehalose in degradation product by glucoamylase: pH4.5, 40° C., 6 hours
Method: Fifty milligrams of the non-reducing saccharide preparation PI, PII, PIII, PIV or PV prepared in Experiment 4 was dissolved in 1 ml of 50 mM acetate buffer (pH4.5), added with one unit of the glucoamylase commercialized by Seikagaku Corp., Tokyo, Japan, incubated at 40° C. for 6 hours for enzymatic hydrolysis and analyzed for degradation products on high-performance liquid chromatography, thus detecting glucose and trehalose as sole products. The noted glucose contents, trehalose contents and their molar ratios were as shown in Table 5.

rice alpha-glucosidase = test: Degradation by rice alpha-glucosidase; assay type: biochemical; settings: for Glucose in degradation product by alpha-glucosidase / Others in degradation product by alpha-glucosidase / Trehalose in degradation product by alpha-glucosidase: pH4.0, 37° C., 18 hours
Method: as §1

[4] = test system: acetone-pulverized rat small intestine enzyme; test: Degradation by acetone-pulverized rat small intestine enzyme; assay type: biochemical; settings: for Glucose in degradation product by acetone-powdered rat small intestine enzyme / Others in degradation product by acetone-powdered rat small intestine enzyme / Trehalose in degradation product by acetone-powdered rat small intestine enzyme: pH6.0, 37° C., 18 hours
Method: as §1

beta-amylase = test: Degradation by beta-amylase; assay type: biochemical
Text: Considering the reaction characteristics of glucoamylase, these saccharides very likely bear structures where glucose molecule(s) is bound to trehalose molecule via alpha1,4 or alpha-1,6 linkage: Saccharide PI is a non-reducing saccharide with a glucose polymerization degree of 3 where one glucose molecule is bound to one trehalose molecule; saccharide PII, another non-reducing saccharide with a glucose polymerization degree of 4 where two glucose molecules are bound to one trehalose molecule; saccharide PIII, still another non-reducing saccharide with a glucose polymerization degree of 5 where three glucose molecules are bound to one trehalose molecule; saccharide PIV, still another non-reducing saccharide with a glucose polymerization degree of 6 where four glucose molecules are bound to one trehalose molecule; and saccharide PV, still another non-reducing saccharide with a polymerization degree of 7 where five glucose molecules are bound to one trehalose molecule.

Row | SMILES | Degradation by alpha-amylase (in words) [1] | G1 (glucose) in degradation product by alpha-amylase [1] [%] | G2 (maltose) in degradation product by alpha-amylase [1] [%] | G3 (maltotriose) in degradation product by alpha-amylase [1] [%] | PI in degradation product by alpha-amylase [1] [%] | PII in degradation product by alpha-amylase [1] [%] | Degradation by pig kidney trehalase (in words) (pig kidney trehalase) | Coloration degree relative to maltooligosaccharides as material [2] | DE of saccharide preparation [3] | Animal death at the possible highest dose (mice) | Degradation by glucoamylase (in words) (glucoamylase) | Molar ratio (glucose/trehalose) (glucoamylase) | Glucose in degradation product by glucoamylase (glucoamylase) [%] | Trehalose in degradation product by glucoamylase (glucoamylase) [%] | Degradation by alpha-glucosidase (in words) (rice alpha-glucosidase) | Glucose in degradation product by alpha-glucosidase (rice alpha-glucosidase) [%] | Others in degradation product by alpha-glucosidase (rice alpha-glucosidase) [%] | Trehalose in degradation product by alpha-glucosidase (rice alpha-glucosidase) [%] | Degradation by acetone-pulverized rat small intestine enzyme (in words) [4] | Glucose in degradation product by acetone-powdered rat small intestine enzyme [4] [%] | also measured
1 | OC[C@H]1O[C@H](O[C@H]2O[C@H](CO)[C@@H](O[C@H]3O[C@H](CO)[C@@H](O)[C@H](O)[C@H]3O)[C@H](O)[C@H]2O)[C@H](O)[C@@H](O)[C@@H]1O [PI, alpha-glucosyl trehalose] | hardly degraded by alpha-amylase | 0 | 0.4 | 2.3 | 97.3 | 0 | degradable into glucose by the trehalase | 3-6% | 0.83 | no animal death was observed | degraded by glucoamylase into one glucose molecule and one trehalose molecule | 1.07 | 36.2 | 63.8 | degradable | 36.5 | 0.5 | 63.0 | degradable | 37.2 | Coloration degree at 480 nm [2]: 0.027; Others in degradation product by acetone-powdered rat small intestine enzyme [4]: 0.4%; Trehalose in degradation product by acetone-powdered rat small intestine enzyme [4]: 62.4%; Degradation by beta-amylase (in words) (beta-amylase): not degraded
2 | OC[C@H]1O[C@H](O[C@H]2O[C@H](CO)[C@@H](O[C@H]3O[C@H](CO)[C@@H](O[C@H]4O[C@H](CO)[C@@H](O[C@H]5O[C@H](CO)[C@@H](O)[C@H](O)[C@H]5O)[C@H](O)[C@H]4O)[C@H](O)[C@H]3O)[C@H](O)[C@H]2O)[C@H](O)[C@@H](O)[C@@H]1O [PIII, alpha-maltotriosyl trehalose] | degraded by alpha-amylase into smaller oligosaccharides | 1.2 | 33.0 | 0 | 61.0 | 4.8 | degradable into glucose by the trehalase | 3-6% | 0.10 | no animal death was observed | three glucose molecules and one trehalose molecule | 3.02 | 61.4 | 38.6 | degradable | 61.7 | 0.2 | 38.1 | degradable | 62.0 | Coloration degree at 480 nm [2]: 0.012; Others in degradation product by acetone-powdered rat small intestine enzyme [4]: 0.4%; Trehalose in degradation product by acetone-powdered rat small intestine enzyme [4]: 37.6%; Degradation by beta-amylase (in words) (beta-amylase): degraded into one maltose molecule and one saccharide PI molecule
3 | OC[C@H]1O[C@H](O[C@H]2O[C@H](CO)[C@@H](O[C@H]3O[C@H](CO)[C@@H](O[C@H]4O[C@H](CO)[C@@H](O[C@H]5O[C@H](CO)[C@@H](O[C@H]6O[C@H](CO)[C@@H](O[C@H]7O[C@H](CO)[C@@H](O)[C@H](O)[C@H]7O)[C@H](O)[C@H]6O)[C@H](O)[C@H]5O)[C@H](O)[C@H]4O)[C@H](O)[C@H]3O)[C@H](O)[C@H]2O)[C@H](O)[C@@H](O)[C@@H]1O [PV, alpha-maltopentaosyl trehalose] | degraded by alpha-amylase into smaller oligosaccharides; also recorded: yields non-reducing saccharide PII and maltotriose as predominant products | 1.0 | 8.6 | 35.3 | 10.2 | 44.9 | degradable into glucose by the trehalase | 3-6% | 0.23 | no animal death was observed | five glucose molecules and one trehalose molecule | 5.11 | 72.9 | 27.1 | degradable | 71.4 | 0.3 | 28.3 | degradable | 73.4 | LD50 (mice; mouse, in vivo, po): at least 50 g/kg; Others in degradation product by acetone-powdered rat small intestine enzyme [4]: 0.1%; Trehalose in degradation product by acetone-powdered rat small intestine enzyme [4]: 26.5%; Degradation by beta-amylase (in words) (beta-amylase): two maltose molecules and one saccharide PI molecule
